Measurements reported in patent US9365540B2, “Benzimidazole derivatives as MCH receptor antagonists” (Takeda Pharmaceutical Company Limited, priority 2012, dated 2016).
Structures can show the parent of a compound that is named as a salt. Where two headings read alike, the source gives them in different places.

Legend:
human MCHR1 = biological target: T1, human MCHR1 (Homo sapiens, UniProt Q99705); test: MCH receptor 1 antagonistic activity, Ca2+ mobilization assay; assay type: cell-based; details: for inhibition at 0.1 µM: CHO, read-out: Inhibitory rate % (0.1 μM); for Inhibitory rate % (0.1 μM): hydrochloride
T1 construct: expressed in transfected cells; host or cells: CHO dhfr- cells, clone #4
Description: Measurement of MCH Receptor 1 Antagonistic Activity of Test Compound Using Ca^2+ Mobilization Assay Using an expression vector plasmid introduced with human MCHR1 gene for expression in animal cells, human MCHR1 gene was introduced into CHO cells (CHO dhfr^−) by Lipofectamine LTX (Invitrogen). The cells were cultured in selection MEMα medium [445 mL of MEMα medium without nucleic acid and added with 5 mL of Penicillin-Streptomycin (Invitrogen) and 50 mL of dialyzed fetal bovine serum]. Colony 24 clones grown in the selection medium, which were human MCHR1 gene-expressing CHO cell candidates, were selected. […] In the following test, this human MCHR1-expressing CHO cell (clone #4) was used. An integrated dispensing function fluorometer (CellLux, PerkinElmer) was used for Ca^2+ mobilization assay. […] The medium was removed, and the cells were washed with phosphate buffered saline (PBS). […] The plate was set on a plate reader. […] The inhibition rates (%) of test compounds (0.1 μM) as antagonist activity measured using human MCHR1-expressing CHO cells (clone #4) are shown in the following Table 3.

[1] = biological target: T2, human MCH receptor 1 (MCHR1) (Homo sapiens, UniProt Q99705); test: human MCH receptor 1 (MCHR1) competitive binding assay with [125I]-MCH(4-19); details: test compound 0.1 μM, human MCHR1-expressing CHO cell membrane fraction; for inhibition at 0.1 µM: read-out: Binding inhibition rate % (0.1 μM)
T2 construct: expressed in transfected cells; host or cells: CHO cell clone 57 (membrane fraction)
In short: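 Membranes from CHO cells expressing human MCHR1 incubated with [125I]-MCH(4-19) and test compound in 20 mM Tris-HCl pH 7.5/5 mM EDTA with protease inhibitors, 1 hr at room temperature. Bound radioactivity collected on PEI-treated GF/C filters; % inhibition at 0.1 μM compound, nonspecific binding set with cold MCH(1-19).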

[2] = test compound 0.1 μM, human MCHR1-expressing CHO cells (clone #4), ligand MCH(4-19) 2 nM

T1 sequence (Q99705 whole entry): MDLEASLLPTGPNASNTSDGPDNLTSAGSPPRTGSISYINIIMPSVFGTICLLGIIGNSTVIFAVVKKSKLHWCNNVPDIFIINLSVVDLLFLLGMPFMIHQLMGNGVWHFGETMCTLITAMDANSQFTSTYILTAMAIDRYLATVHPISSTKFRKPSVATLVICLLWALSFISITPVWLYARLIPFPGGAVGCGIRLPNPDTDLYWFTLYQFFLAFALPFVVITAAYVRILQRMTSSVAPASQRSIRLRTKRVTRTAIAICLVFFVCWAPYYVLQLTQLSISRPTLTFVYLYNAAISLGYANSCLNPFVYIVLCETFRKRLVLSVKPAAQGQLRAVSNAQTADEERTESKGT
T2 sequence (Q99705 whole entry): as above

| Compound | inhibition at 0.1 µM (human MCHR1; [2]) | inhibition at 0.1 µM [1] | Inhibitory rate % (0.1 μM) (human MCHR1; [2]) | Binding inhibition rate % (0.1 μM) ([1]; hydrochloride, 0.1 µM) | inhibition at 0.1 µM (human MCHR1) |
| --- | --- | --- | --- | --- | --- |
| CCc1nc2ccc(-n3ccc(OCc4csc(F)c4)cc3=O)cc2n1C [Example 231, 1-(2-Ethyl-1-methyl-1H-benzimidazol-6-yl)-4-((5-fluoro-3-thienyl)methoxy)pyridin-2(1H)-one] | 95% | 71% |  |  |  |
| CCc1nc2ccc(-n3ccc(OCc4ccsc4)cc3=O)cc2n1C [Example 235, 1-(2-Ethyl-1-methyl-1H-benzimidazol-6-yl)-4-(3-thienylmethoxy)pyridin-2(1H)-one] | 93% | 69% |  |  |  |
| CCc1nc2ccc(-n3ccc(OCc4cc(Cl)cs4)cc3=O)cc2n1C [Example 236, 4-((4-Chlorothiophen-2-yl)methoxy)-1-(2-ethyl-1-methyl-1H-benzimidazol-6-yl)pyridin-2(1H)-one] | 96% | 76% |  |  |  |
| Cn1c(C2CC2C#N)nc2ccc(-n3ccc(OCc4ccc(Cl)cc4)cc3=O)cc21 (stereo not drawn) [Example 237, (1R*,2S*)-2-(6-(4-((4-Chlorobenzyl)oxy)-2-oxopyridin-1(2H)-yl)-1-methyl-1H-benzimidazol-2-yl)cyclopropanecarbonitrile hydrochloride] |  | 78% | 67% |  |  |
| Cn1c(C2CC2C#N)nc2ccc(-n3ccc(OCc4ccc(Cl)cc4)cc3=O)cc21 (stereo not drawn) [Example 238, (1R*,2S*)-2-(6-(4-((4-Chlorobenzyl)oxy)-2-oxopyridin-1(2H)-yl)-1-methyl-1H-benzimidazol-2-yl)cyclopropanecarbonitrile hydrochloride] |  |  | 42% | 65% |  |
| Cn1c(C2CC2)nc2ccc(-n3ccc(OCc4cc(F)c(F)s4)cc3=O)cc21 [Example 239, 1-(2-Cyclopropyl-1-methyl-1H-benzimidazol-6-yl)-4-((4,5-difluoro-2-thienyl)methoxy)pyridin-2(1H)-one] | 92% | 74% |  |  |  |
| Cn1c(C2CC2)nc2ccc(-n3ccc(OCc4cc(Br)cs4)cc3=O)cc21 [Example 240, 4-((4-Bromo-2-thienyl)methoxy)-1-(2-cyclopropyl-1-methyl-1H-benzimidazol-6-yl)pyridin-2(1H)-one] | 99% | 91% |  |  |  |
| Cn1c(C2CC2)nc2ccc(-n3ccc(OCc4ccc(C(F)(F)F)o4)cc3=O)cc21 [Example 241, 1-(2-Cyclopropyl-1-methyl-1H-benzimidazol-6-yl)-4-((5-(trifluoromethyl)-2-furyl)methoxy)pyridin-2(1H)-one] | 76% | 56% |  |  |  |
| Cn1c(C2CC2)nc2ccc(-n3ccc(COc4ccc(F)cc4)cc3=O)cc21 [Example 243, 1-(2-Cyclopropyl-1-methyl-1H-benzimidazol-6-yl)-4-((4-fluorophenoxy)methyl)pyridin-2(1H)-one] | 72% | 38% |  |  |  |
| Cn1c(C2CC2)nc2ccc(-n3ccc(OCc4cc(Br)c(F)s4)cc3=O)cc21 [Example 244, 4-((4-Bromo-5-fluoro-2-thienyl)methoxy)-1-(2-cyclopropyl-1-methyl-1H-benzimidazol-6-yl)pyridin-2(1H)-one] | 98% | 83% |  |  |  |
| Cn1c(C2CC2)nc2ccc(-n3ccc(COc4ccc(Cl)cc4)cc3=O)cc21 [Example 245, 4-((4-Chlorophenoxy)methyl)-1-(2-cyclopropyl-1-methyl-1H-benzimidazol-6-yl)pyridin-2(1H)-one] | 58% | 59% |  |  |  |
| Cn1c(C2CC2)nc2ccc(-n3ccc(OCc4ccc(C(F)F)s4)cc3=O)cc21 [Example 248, 1-(2-Cyclopropyl-1-methyl-1H-benzimidazol-6-yl)-4-((5-(difluoromethyl)-2-thienyl)methoxy)pyridin-2(1H)-one] | 97% | 79% |  |  |  |
| Cn1c(C2CC2)nc2ccc(-n3ccc(OCc4csc(Br)c4)cc3=O)cc21 [Example 250, 4-((5-Bromo-3-thienyl)methoxy)-1-(2-cyclopropyl-1-methyl-1H-benzimidazol-6-yl)pyridin-2(1H)-one] | 100% | 92% |  |  |  |
| Cn1c(C2CC2)nc2ccc(-n3ccc(OCc4nc(C(F)(F)F)cs4)cc3=O)cc21 [Example 256, 1-(2-Cyclopropyl-1-methyl-1H-benzimidazol-6-yl)-4-((4-(trifluoromethyl)-1,3-thiazol-2-yl)methoxy)pyridin-2(^1H)-one] | 97% | 70% |  |  |  |
| Cn1c(C2CC2)nc2ccc(-n3ccc(OCc4ccc(Br)o4)cc3=O)cc21 [Example 259, 4-((5-Bromo-2-furyl)methoxy)-1-(2-cyclopropyl-1-methyl-1H-benzimidazol-6-yl)pyridin-2(1H)-one] | 100% | 70% |  |  |  |
| Cn1c(C2CC2)nc2ccc(-n3ccc(OCc4ccc(Br)cn4)cc3=O)cc21 [Example 260, 4-((5-Bromopyridin-2-yl)methoxy)-1-(2-cyclopropyl-1-methyl-1H-benzimidazol-6-yl)pyridin-2(1H)-one] | 104% | 75% |  |  |  |
| CCc1nc2ccc(-n3ccc(OCc4nc(C(F)(F)F)cs4)cc3=O)cc2n1C [Example 261, 1-(2-Ethyl-1-methyl-1H-benzimidazol-6-yl)-4-((4-(trifluoromethyl)-1,3-thiazol-2-yl)methoxy)pyridin-2(1H)-one] | 100% | 57% |  |  |  |
| Cn1c(C2CC2)nc2ccc(-n3ccc(OCc4coc(Br)c4)cc3=O)cc21 [Example 262, 4-((5-Bromo-3-furyl)methoxy)-1-(2-cyclopropyl-1-methyl-1H-benzimidazol-6-yl)pyridin-2(1H)-one] | 98% | 80% |  |  |  |
| Cc1c(C2CC2)nc2ccc(-n3ccc(OCc4ccccn4)cc3=O)cn12 [Example 263, 1-(2-Cyclopropyl-3-methylimidazo[1,2-a]pyridin-6-yl)-4-(pyridin-2-ylmethoxy)pyridin-2(1H)-one hydrochloride] |  | 30% |  |  | 52% |
| CCc1nc2ccc(-n3ccc(OCc4csc(C(F)(F)F)c4)cc3=O)cc2n1C [Example 265, 1-(2-Ethyl-1-methyl-1H-benzimidazol-6-yl)-4-((5-(trifluoromethyl)-3-thienyl)methoxy)pyridin-2(1H)-one] | 97% | 61% |  |  |  |
| Cc1csc(COc2ccn(-c3ccc4nc(C5CC5)n(C)c4c3)c(=O)c2)n1 [Example 268, 1-(2-Cyclopropyl-1-methyl-1H-benzimidazol-6-yl)-4-((4-methyl-1,3-thiazol-2-yl)methoxy)pyridin-2(1H)-one] | 86% | 66% |  |  |  |
| Cn1c(C2CC2)nc2ccc(-n3ccc(OCc4nc(CF)cs4)cc3=O)cc21 [Example 270, 1-(2-Cyclopropyl-1-methyl-1H-benzimidazol-6-yl)-4-((4-(fluoromethyl)-1,3-thiazol-2-yl)methoxy)pyridin-2(1H)-one] | 73% | 58% |  |  |  |
| Cn1c(C2CC2)nc2ccc(-n3ccc(OCc4nc(C5CC5)cs4)cc3=O)cc21 [Example 277, 1-(2-Cyclopropyl-1-methyl-1H-benzimidazol-6-yl)-4-((4-cyclopropyl-1,3-thiazol-2-yl)methoxy)pyridin-2(1H)-one] | 77% | 55% |  |  |  |
| Cn1c(C2CC2)nc2ccc(-n3ccc(OCc4nc(C(F)F)cs4)cc3=O)cc21 [Example 283, 1-(2-Cyclopropyl-1-methyl-1H-benzimidazol-6-yl)-4-((4-(difluoromethyl)-1,3-thiazol-2-yl)methoxy)pyridin-2(1H)-one] | 99% | 56% |  |  |  |
| CCc1nc2ccc(-n3ccc(OCc4nc(C(F)F)cs4)cc3=O)cc2n1C [Example 284, 4-((4-(Difluoromethyl)-1,3-thiazol-2-yl)methoxy)-1-(2-ethyl-1-methyl-1H-benzimidazol-6-yl)pyridin-2(1H)-one] | 83% | 37% |  |  |  |
| Cn1c(C2CC2)nc2ccc(-n3ccc(OCc4csc(C5CC5)n4)cc3=O)cc21 [Example 285, 1-(2-Cyclopropyl-1-methyl-1H-benzimidazol-6-yl)-4-((2-cyclopropyl-1,3-thiazol-4-yl)methoxy)pyridin-2(1H)-one] | 58% | 36% |  |  |  |
| Cc1nc2ccc(-n3ccc(OCc4cc(C(F)(F)F)cs4)cc3=O)cc2n1C [Example 286, 1-(1,2-Dimethyl-1H-benzimidazol-6-yl)-4-((4-(trifluoromethyl)thiophen-2-yl)methoxy)pyridin-2(1H)-one] | 100% | 58% |  |  |  |
